Holding throughout (type): physicochemical
A short description of series [1]: Moisture fastness test of recorded image. Also noted: key: ∘: Bleed is not observed.; Δ: Bleed is observed on small degree.; ×: Bleed is observed on large degree. The note with it: 168 hours, 30° C., 85% RH, bleed by visual observation. On the procedure:
(§1) Using an ink jet printer (manufactured by Canon Inc., trade name: Pixus 860i), inkjet recording was performed on glossy paper (manufactured by Canon Inc., trade name: Professional Photo Paper PR-101) having an ink image-receiving layer containing porous white inorganic substance and photo paper (glossy) manufactured by SEIKO-EPSON CORPORATION. In inkjet recording, an image pattern was made to obtain gradations of several stages in printing density and a print was made.
Using a thermo-hygrostat (manufactured by OHKEN, Co., LTD), pieces of printed testing paper of glossy paper manufactured by Canon, Inc. and glossy paper manufactured by SEIKO-EPSON CORPORATION were left for 168 hours at a temperature of 30° C. and a humidity of 85% RH. Bleed property before and after the test was determined by visual observation and evaluated on 3 levels.
∘: Bleed is not observed.
Δ: Bleed is observed on small degree.
×: Bleed is observed on large degree.

The nature of series [2]: Evaluation of hue on glossy paper (L*, a*, b*, C* of inkjet recorded image). More on the design: key to Lightness L*: CIELAB L* lightness value; key to Chromaticity a*: CIELAB a* chromaticity value; key to Chromaticity b*: CIELAB b* chromaticity value. The following applies: for Chroma C*: C*=((a*)^2+(b*)^2)^1/2; for Chromaticity a* / Chromaticity b* / Lightness L*: ink with 6.0 parts compound.
Description: The compound (Compound Example No. 1) obtained in the above Example 1 was used to prepare a solution of the composition shown in the following Table 2, which was filtrated with a 0.45 μm membrane filter for removing insoluble matter to obtain each water-based ink composition for inkjet recording. And ion-exchanged water was used as water. In addition, the pH of the ink composition was adjusted to pH=8 to 10 with a 25% caustic soda aqueous solution, and water was further added so that the whole weight was 100 parts. Example 5 is the test using the compound obtained in Example 1.
as §1
For the hue and vividness of recorded image, printed recording paper was measured using a Color Calibration Systems (trade name: GRETAG SPM50, manufactured by GretagMacbeth AG) to calculate values of L*, a* and b*, and chroma (C*) showing vividness was calculated from chromaticity (a*, b*) by C*=((a*)^2+(b*)^2)^1/2. The hue was evaluated by comparing with a sample of standard magenta in Japan Color manufactured by JPMA (Industry Association: Japan Printing Machinery Association).
In this connection, paper used for standard magenta in Japan Color was Japan Color Standard Paper.

Series [3] is described as follows: Xenon light fastness test of recorded image. The note with it: any of glossy papers of CANON INC. and SEIKO-EPSON CORPORATION
On the procedure:
as §1
Using a xenon weatherometer Ci4000 (manufactured by ATLAS Electric Devices Co.), pieces of printed testing paper of glossy paper manufactured by Canon, Inc. and glossy paper manufactured by SEIKO-EPSON CORPORATION, on which an air layer was provided and a glass plate having a thickness of 2 mm was set up, were irradiated for 50 hours at an illuminance of 0.36 W/m^2 under the circumstances of a humidity of 60% RH and a temperature of 24° C. Color difference (ΔE) before and after the test was measured and the evaluation was performed on 3 levels.

Series [4] is described as follows: Ozone gas fastness test of recorded image. The note with it: any of glossy papers of CANON INC. and SEIKO-EPSON CORPORATION
On the procedure: Using an ink jet printer (manufactured by Canon Inc., trade name: Pixus 860i), inkjet recording was performed on glossy paper (manufactured by Canon Inc., trade name: Professional Photo Paper PR-101) having an ink image-receiving layer containing porous white inorganic substance and photo paper (glossy) manufactured by SEIKO-EPSON CORPORATION. In inkjet recording, an image pattern was made to obtain gradations of several stages in printing density and a print was made. Using an ozone weatherometer (manufactured by Suga Test Instruments Co., Ltd.), pieces of printed testing paper of glossy paper manufactured by Canon, Inc. and glossy paper manufactured by SEIKO-EPSON CORPORATION were left for 3 hours under the circumstances of an ozone concentration of 12 ppm, a humidity of 60% RH and a temperature of 24° C. Color difference (ΔE) before and after the test was measured and evaluation was performed on 3 levels. [formula] [formula] [formula]

The mark [5] stands for this setting: Glossy paper manufactured by CANON INC.
Where [6] appears, read: Glossy paper manufactured by SEIKO-EPSON CORPORATION
Where [7] appears, read: Glossy paper manufactured by Canon Inc.

The structures appear in SMILES notation.

`O=C(O)c1cc(Nc2nc(O)nc(Nc3cc(Nc4cc(Oc5ccc(-c6ccc(S(=O)(=O)O)cc6)cc5S(=O)(=O)O)c5[nH]c(=O)c(C(=O)c6cccc(S(=O)(=O)O)c6)c6c5c4C(=O)c4ccccc4-6)c(S(=O)(=O)O)cc3S(=O)(=O)O)n2)cc(C(=O)O)c1` [Example 7 (No. 11)]: the Moisture fastness entry in series [1] (setting [5]) was “∘”. Besides, the Moisture fastness result in series [1] (setting [6]) is “∘”. Also, in series [2] (setting [7]), the “Chroma C*” value worked out at 78.6, the “Chromaticity a*” value was determined as 78.7, the “Chromaticity b*” value was determined as 1.0 and the “Lightness L*” value worked out at 54.8. Besides, in series [2] (setting [6]), the “Chroma C*” value stood at 77.6, the “Chromaticity a*” value turned out to be 77.4, the “Chromaticity b*” value is given as −2.6 and the “Lightness L*” value is 57.2.
For `O=C(O)c1ccccc1Nc1nc(O)nc(Nc2cc(Nc3cc(Oc4ccc(-c5ccc(S(=O)(=O)O)cc5)cc4S(=O)(=O)O)c4[nH]c(=O)c(C(=O)c5cccc(S(=O)(=O)O)c5)c5c4c3C(=O)c3ccccc3-5)c(S(=O)(=O)O)cc2S(=O)(=O)O)n1` [Example 6 (No. 8)], the Moisture fastness result in series [1] (setting [5]) is listed as “∘”. Moreover, the Moisture fastness result in series [1] (setting [6]) is recorded as “∘”. In series [2] (setting [7]), the “Chroma C*” value is 82.1, the “Chromaticity a*” value is listed as 82.1, the “Chromaticity b*” value turned out to be 0.5 and the “Lightness L*” value was determined as 55.4. For the same compound, in series [2] (setting [6]), the “Chroma C*” value is reported as 80.5, the “Chromaticity a*” value is 80.6, the “Chromaticity b*” value is recorded as −2.2 and the “Lightness L*” value turned out to be 56.1.
For the compound `Cn1c(=O)cc2c3c(c(Nc4cc(Nc5nc(O)nc(Nc6cc(S(=O)(=O)O)ccc6S(=O)(=O)O)n5)ccc4S(=O)(=O)O)ccc31)C(=O)c1ccccc1-2` [Comparative Example 1, reference compound], the “Light fastness (in words)” value in series [3] is “has a problem in light fastness”. Moreover, in series [1] (setting [5]), the Moisture fastness entry is listed as “∘”. In addition, the Moisture fastness entry in series [1] (setting [6]) was “∘”. Further, in series [2] (setting [7]), the “Chroma C*” value was 81.3, the “Chromaticity a*” value came to 81.0, the “Chromaticity b*” value is −6.7 and the “Lightness L*” value came out at 49.8. In series [2] (setting [6]), the “Chroma C*” value was 80.4, the “Chromaticity a*” value was 79.9, the “Chromaticity b*” value is reported as −9.5 and the “Lightness L*” value is given as 49.5. Further, the “Ozone gas fastness (in words)” value in series [4] is “a drawback in ozone gas fastness”.
`O=C(c1cccc(S(=O)(=O)O)c1)c1c2c3c(c(Nc4cc(Nc5nc(O)nc(Nc6ccccc6S(=O)(=O)O)n5)c(S(=O)(=O)O)cc4S(=O)(=O)O)cc(Oc4ccc(-c5ccc(S(=O)(=O)O)cc5)cc4S(=O)(=O)O)c3[nH]c1=O)C(=O)c1ccccc1-2` [Example 5 (No. 1)]: the Moisture fastness entry in series [1] (setting [5]) is “∘”. Further, the Moisture fastness result in series [1] (setting [6]) is reported as “∘”. In series [2] (setting [7]), the “Chroma C*” value is recorded as 88.2, the “Chromaticity a*” value came to 88.2, the “Chromaticity b*” value is −2.9 and the “Lightness L*” value came out at 57.8. For the same compound, in series [2] (setting [6]), the “Chroma C*” value stood at 82.3, the “Chromaticity a*” value is 82.3, the “Chromaticity b*” value is listed as −1.7 and the “Lightness L*” value was found to be 56.1.

Values taken from patent publication US20100221502A1, “Anthrapyridone Compound and Salt Thereof, Magenta Ink Composition Containing the Anthrapyridone Compound, and Colored Article” (priority 2005, published 2010).
